Columns and labels:
Serine protease 1 = molecular target: T1, Serine protease 1 (Bos taurus, UniProt P00760); assay: Inhibitory activity against Bovine Trypsin
T1 sequence (P00760 whole entry): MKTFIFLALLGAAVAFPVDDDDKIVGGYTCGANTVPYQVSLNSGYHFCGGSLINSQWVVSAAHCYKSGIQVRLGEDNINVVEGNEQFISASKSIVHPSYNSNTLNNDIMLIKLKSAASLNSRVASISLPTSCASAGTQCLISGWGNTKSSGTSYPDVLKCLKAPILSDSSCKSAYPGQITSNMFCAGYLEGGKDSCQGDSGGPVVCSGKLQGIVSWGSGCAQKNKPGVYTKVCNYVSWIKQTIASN

[1] = Peak plasma concentration (Cmax) was determined; format: ADME, organism-based; conditions: rat
Prothrombin = Prothrombin (Homo sapiens, UniProt P00734); assay: In vitro inhibition of human thrombin.
Rattus norvegicus = assay: Oral bioavailability; format: ADME, organism-based; conditions: in vivo
[2] = Area under curve (AUC) at a dose of […] mg/kg in rats; format: ADME, organism-based; conditions: rat, in vivo, 30 mg/kg
[3] = Maximum time (Tmax) required to reach Cmax in rats; format: ADME, organism-based; conditions: rat, in vivo
[4] = Peak plasma concentration (Cmax) in rats; format: ADME, organism-based; conditions: rat
[5] = Half life (t1/2) was determined; format: ADME, organism-based; conditions: rat, in vivo
[6] = Bioavailability; format: ADME, organism-based; conditions: eutheria, in vivo
[7] = Area under curve at a dose of 10 mg/kg; format: ADME, organism-based; parameters: dose 10 mg/kg; conditions: in vivo
[8] = Plasma Clearance was determined; format: ADME, organism-based; conditions: rat
[9] = Area under curve at a dose of 30 mg/kg; format: ADME, organism-based; parameters: dose 30 mg/kg; conditions: rat, in vivo

CN(C(=O)[C@H](Cc1ccc(C(=N)NN)cc1)NS(=O)(=O)c1ccc2ccccc2c1)C1CCCC1
Ki (Serine protease 1): 33 µM

O=C(O)CN[C@@H](C(=O)N1CCC[C@H]1C(=O)NCC#Cc1cnc[nH]1)C(c1ccccc1)c1ccccc1
Cmax [1]: 1.6 µM | Ki (Serine protease 1): 47 µM | Ki (Prothrombin): 0.044 µM

CC(=O)N[C@@H](C(=O)N1CCC[C@H]1C(=O)NCC#Cc1cnc[nH]1)C(c1ccccc1)c1ccccc1
Cmax [1]: 1.6 µM | Ki (Prothrombin): 0.208 µM

CC(C)(C)OC(=O)N[C@@H](C(=O)N1CCC[C@H]1C(=O)NCC#Cc1cnc[nH]1)C(C1CCCCC1)C1CCCCC1
Ki (Serine protease 1): 30 µM | Ki (Prothrombin): 0.029 µM

N[C@@H](C(=O)N1CCC[C@H]1C(=O)NCC#Cc1cnc[nH]1)C(c1ccccc1)c1ccccc1
Ki (Serine protease 1): 25 µM | Ki (Prothrombin): 0.012 µM

NS(=O)(=O)N[C@@H](C(=O)N1CCC[C@H]1C(=O)NCC#Cc1c[nH]cn1)C(c1ccccc1)c1ccccc1
Ki (Serine protease 1): 18 µM | Ki (Prothrombin): 0.0008 µM

O=C(NCC#Cc1cnc[nH]1)[C@@H]1CCCN1C(=O)[C@H](NS(=O)(=O)Cc1ccccc1)C(c1ccccc1)c1ccccc1
Ki (Serine protease 1): 24 µM | Ki (Prothrombin): 0.003 µM

NC1CCC(CNC(=O)[C@@H]2CCCN2C(=O)[C@H](N)C(c2ccccc2)c2ccccc2)CC1 (stereo not given in full)
F (Rattus norvegicus): Oral bioavailability

Cn1cncc1C#CCNC(=O)[C@@H]1CCCN1C(=O)[C@@H](Cc1ccccc1)NC(=O)OC(C)(C)C
Ki (Prothrombin): 5.5 µM

CC(C)(C)OC(=O)N[C@H](Cc1ccccc1)C(=O)N1CCC[C@H]1C(=O)NCC#Cc1cn[nH]c1
Ki (Prothrombin): 5.4 µM

CC(C)(C)OC(=O)N[C@@H](C(=O)N1CCC[C@H]1C(=O)NCC#Cc1c[nH]cn1)C(c1ccccc1)c1ccccc1
AUC [2]: 29 µM·h | Ki (Serine protease 1): 50 µM | Tmax [3]: 1 h | Cmax [4]: 14.6 µM

CC(C)(C)OC(=O)N[C@H](Cc1ccccc1)C(=O)N1CCC[C@H]1C(=O)NCC#Cc1ccc(N)nc1
Ki (Prothrombin): > 20 µM

CC(C)(C)OC(=O)N[C@H](Cc1ccccc1)C(=O)N1CCC[C@H]1C(=O)NCC#Cc1ccncc1
Ki (Prothrombin): > 20 µM

COC(=O)N[C@@H](C(=O)N1CCC[C@H]1C(=O)NCC#Cc1c[nH]cn1)C(C1CCCCC1)C1CCCCC1
Ki (Serine protease 1): 30 µM | Ki (Prothrombin): 0.015 µM

O=C(O)CN[C@H](CC1CCCCC1)C(=O)N1CCC[C@H]1C(=O)NCC#Cc1cnc[nH]1
Cmax [1]: 1.6 µM | Ki (Prothrombin): 0.48 µM

CS(=O)(=O)N[C@@H](C(=O)N1CCC[C@H]1C(=O)NCC#Cc1c[nH]cn1)C(c1ccccc1)c1ccccc1
Ki (Serine protease 1): 14 µM | Ki (Prothrombin): 0.0026 µM

NC1CCC(CNC(=O)[C@@H]2CCCN2C(=O)[C@H](NS(=O)(=O)Cc2ccccc2)C(c2ccccc2)c2ccccc2)CC1 (stereo not given in full)
F (Rattus norvegicus): Oral bioavailability

CC(C)(C)OC(=O)N[C@H](Cc1ccccc1)C(=O)N1CCC[C@H]1C(=O)NCC#Cc1cnc[nH]1
Ki (Prothrombin): 1.2 µM

COC(=O)N[C@@H](C(=O)N1CCC[C@H]1C(=O)NCC#Cc1c[nH]cn1)C(c1ccccc1)c1ccccc1
Cmax [1]: 23.6 µM | Ki (Serine protease 1): 24 µM | Tmax [3]: 1 h | half-life [5]: 0.667 h | bioavailability [6]: 58% | AUC [7]: 26 µM·h | Ki (Prothrombin): 0.014 µM | clearance [8]: 0.768 L/h/kg | AUC [9]: 46 µM·h
